Several values for one entry are separate records, joined by “and”; a condition that tells them apart may be missing. Equal values may be shown once.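 Five compound concentrations were applied to cells in 96-well plates for 48 hours; endpoints were derived by simple linear interpolation of the resulting dose-response curve. Abbreviation: GI50, concentration required for 50% inhibition of growth. The concentration for full growth arrest is given as TGI.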

The first assay has as its system SF-268 CNS. The assay can be described thus: DTP human tumour cell line panel, 48 h.
Take `Cc1cccc(Cn2cc(CO)c3cnccc32)c1`: the GI50 was more than 100 µM and the TGI was more than 100 µM.

For the compound `COC12C(COC(=O)NCCO)C3=C(C(=O)C(C)=C(N)C3=O)N1CC1NC12` (configuration not stated), the GI50 is 32.9 µM and the TGI is 217 µM.

With `Nc1nccc(-c2c(-c3ccc(F)cc3)nn3cc(C(F)(F)F)ccc23)n1`, the GI50 is more than 25 µM and the TGI is more than 25 µM.

For `C#Cc1ccc(-n2c(/C=C/c3ccc(O)cc3)nc3ncccc3c2=O)cc1`, the GI50 is 5.24 µM and the TGI came to 68 µM.

As to `O=C(O)CN(CCN(CC(=O)O)CC(=O)O)CC(=O)O.[Mn+2]`, the GI50 was more than 100 µM and the TGI was more than 100 µM.

For the compound `N#CC(C#N)=C/C=C(\Sc1ccc(Cl)cc1)c1ccc(F)cc1`, the GI50 was 2.46 µM and the concentration for total growth inhibition (TGI) is 18.8 µM.

As for `CCSCC1CC(O)(c2ccccc2)C(c2ccccc2)C(c2ccc(F)cc2)O1` (configuration not stated), the GI50 was 2.15 µM and the TGI was found to be 5.45 µM.

Turning to `CCO/C=C1\SC(=S)N(c2ccc(OCC)cc2)C1=O`, the concentration for total growth inhibition (TGI) is more than 100 µM.

In a further assay the test system is UACC-257 melanoma. The assay can be described thus: DTP human tumour cell line panel, 48 h.
Consider `O=C(c1cccs1)c1c(C(F)(F)F)n([O-])c2cc(Cl)c(Cl)cc2[n+]1=O`, for which the GI50 was 1.86 µM and the TGI was determined as 3.85 µM.

`CSc1nc2nc(-c3ccccc3)c(C)c-2c2n1C(C)C(=O)N2` (configuration not stated): the GI50 is 51.3 µM and the concentration for total growth inhibition (TGI) was more than 100 µM.

On to `C=CCN(CC=C)C(=O)c1cc(C)nc2c1c(=O)n(-c1ccccc1)c(=O)n2CCCN1CCN(c2ccccc2OC)CC1`, for which the GI50 is more than 50 µM and the TGI was more than 50 µM.

With `CCN(CC)c1ccc2nc3ccc(=[N+](CC)CC)cc-3oc2c1`, the GI50 is 0.0457 µM and the TGI is 0.654 µM.

On to `CN1CCN(c2c(F)cc(NC3=C(Cl)C(=O)c4ncccc4C3=O)cc2F)CC1`, for which the GI50 was 1.68 µM and the TGI stood at 3.39 µM.

For `COc1cc2nnc3c4cccnc4[nH]c3c2cc1OC`, the GI50 was 9.13 µM and 3.32 µM; the TGI is 50 µM and 27.7 µM.

Take `Cc1ccc(S(=O)(=O)NCCCCC(N)C(=O)O)cc1` (configuration not stated): the TGI was more than 100 µM.

For `CCOC(=O)/C(=C\c1cccc(C)c1)C(C)=O`, the TGI is 35.1 µM.

Turning to `Cc1cccc(Cn2cc(CO)c3cnccc32)c1`, the GI50 is 44.2 µM and the TGI was more than 100 µM.

For `COC12C(COC(=O)NCCO)C3=C(C(=O)C(C)=C(N)C3=O)N1CC1NC12` (configuration not stated), the GI50 was 79.1 µM and the TGI stood at 238 µM.

On to `Nc1nccc(-c2c(-c3ccc(F)cc3)nn3cc(C(F)(F)F)ccc23)n1`, for which the GI50 was more than 25 µM and the TGI is more than 25 µM.

Consider `C#Cc1ccc(-n2c(/C=C/c3ccc(O)cc3)nc3ncccc3c2=O)cc1`, for which the GI50 was 6.3 µM and the TGI was more than 100 µM.

Turning to `O=C(O)CN(CCN(CC(=O)O)CC(=O)O)CC(=O)O.[Mn+2]`, the GI50 is more than 100 µM and the TGI is more than 100 µM.

As for `N#CC(C#N)=C/C=C(\Sc1ccc(Cl)cc1)c1ccc(F)cc1`, the GI50 was 6.88 µM and the TGI worked out at 14.7 µM.

As for `CCSCC1CC(O)(c2ccccc2)C(c2ccccc2)C(c2ccc(F)cc2)O1` (configuration not stated), the GI50 is 2.1 µM and the TGI worked out at 4.88 µM.

In turn, `CCO/C=C1\SC(=S)N(c2ccc(OCC)cc2)C1=O` displayed a TGI of more than 100 µM.

For the next assay, the system named is UACC-62 melanoma. Kind of assay: DTP human tumour cell line panel, 48 h.
For the compound `O=C(c1cccs1)c1c(C(F)(F)F)n([O-])c2cc(Cl)c(Cl)cc2[n+]1=O`, the GI50 was 1.18 µM and the TGI was determined as 2.54 µM.

`CSc1nc2nc(-c3ccccc3)c(C)c-2c2n1C(C)C(=O)N2` (configuration not stated): the GI50 is 18.6 µM and the TGI was 45.2 µM.

`C=CCN(CC=C)C(=O)c1cc(C)nc2c1c(=O)n(-c1ccccc1)c(=O)n2CCCN1CCN(c2ccccc2OC)CC1`: the GI50 is more than 50 µM and the TGI was more than 50 µM.

In the case of `CCN(CC)c1ccc2nc3ccc(=[N+](CC)CC)cc-3oc2c1`, the GI50 was 0.756 µM and the TGI is 4.33 µM.

For `CN1CCN(c2c(F)cc(NC3=C(Cl)C(=O)c4ncccc4C3=O)cc2F)CC1`, the GI50 is 14.8 µM and the TGI came to 28 µM.

Take `COc1cc2nnc3c4cccnc4[nH]c3c2cc1OC`: the GI50 was 2.9 µM and 2.49 µM; the TGI was 12.5 µM and 9.65 µM.

In turn, `Cc1ccc(S(=O)(=O)NCCCCC(N)C(=O)O)cc1` (configuration not stated) yielded a TGI of more than 100 µM.

Compound `CCOC(=O)/C(=C\c1cccc(C)c1)C(C)=O` had a TGI of 31.7 µM.

Take `Cc1cccc(Cn2cc(CO)c3cnccc32)c1`: the GI50 is 75.4 µM and the TGI was more than 100 µM.

In turn, `COC12C(COC(=O)NCCO)C3=C(C(=O)C(C)=C(N)C3=O)N1CC1NC12` (configuration not stated) came in with a total growth inhibition concentration (TGI) of 49.9 µM.

`Nc1nccc(-c2c(-c3ccc(F)cc3)nn3cc(C(F)(F)F)ccc23)n1`: the GI50 is more than 25 µM and the TGI was more than 25 µM.

Regarding `C#Cc1ccc(-n2c(/C=C/c3ccc(O)cc3)nc3ncccc3c2=O)cc1`, the GI50 was 4.01 µM and the TGI is more than 100 µM.

For the compound `O=C(O)CN(CCN(CC(=O)O)CC(=O)O)CC(=O)O.[Mn+2]`, the GI50 is more than 100 µM and the TGI is more than 100 µM.

As for `N#CC(C#N)=C/C=C(\Sc1ccc(Cl)cc1)c1ccc(F)cc1`, the GI50 is 2.03 µM and the TGI turned out to be 10.3 µM.

With `CCSCC1CC(O)(c2ccccc2)C(c2ccccc2)C(c2ccc(F)cc2)O1` (configuration not stated), the GI50 is 1.91 µM and the TGI was 5.5 µM.

For the compound `CCO/C=C1\SC(=S)N(c2ccc(OCC)cc2)C1=O`, the TGI was more than 100 µM.

The GI50 is the concentration that inhibits growth by half. The TGI is the concentration at which net growth stops. Low readings indicate more potent growth arrest, high ones less potent growth arrest.

The record behind these values is PubChem BioAssay (NCI).
